Experimental data from patent publication US10047050B2, “3,4-di-substituted pyridine compound, methods of using and compositions comprising the same” (ARDEA BIOSCIENCES, INC., priority 2011, dated 2018).
Values joined by “and” are separate entries in the source; they are usually repeats but may differ in a detail not shown here. Identical values can stand only once.

Tested on: serum uric acid
Assay: Single-dose Phase I clinical trial, serum uric acid (sUA) 0-72 hours post-dose
Type: in vivo, human
Conditions: for Absolute sUA concentration, Mean (3-8) / % sUA reduction (from baseline), Mean (3-8) / % sUA change (from baseline), Mean (3-8): mean of subjects 3-8; for % sUA reduction (from baseline) / % sUA change (from baseline): individual subjects 3-8
Procedure: A Phase 1, Randomized, Double-Blind, Placebo-Controlled Study to Evaluate Safety, Tolerability, Pharmacokinetics and Preliminary Food Effect of Single Doses of a URAT1 Inhibitor, in Healthy Adult Male Volunteers.
To assess safety, tolerability, pharmacokinetics and uricosuric effects after oral administration as single doses of a tablet formulation and the effect of food on bioavailability.
Subjects receive a single, oral dose of active or placebo, at the following doses:
Group 4: 20 mg (fasted) [sentinel dosing];
48 subjects in 6 dose groups, 8 subjects/group, are randomized 3:1 to receive active (6/group) or placebo (2/group). All study procedures are the same regardless of whether subject receives active or placebo. The total duration of subject participation, including screening period, is ˜2-4 weeks, and the total volume of blood collected from each subject during the entire study <500 mL, (less than typically collected during a volunteer blood donation).
5 mg and 20 mg, active and placebo, tablets packaged in 35 count HDPE bottles, stored at controlled room temperature (15-30° C.). Placebo tablets are designed to match the active tablets—identical size, form, taste, and color, and containing the same excipients. 2 mg was dosed as an oral solution.
Subjects dosed on the morning of Day 1 with ˜240 mL of room temp water.
Fasted: subjects are dosed after overnight fast >10 hours and remain fasted until >4 hours post-dose.
Fed: subjects fast overnight for >10 hours, then are dosed 30 mins after completing standard moderate fat breakfast (no high fructose corn syrup).
Serum samples are collected at:
PD samples are frozen (−20° C.) and stored; all samples from a given subject assayed in a single analytical run.

[1] = Group 3, 5 mg single oral dose, fed, 54 h post-dose
[2] = Group 3, 5 mg single oral dose, fed, 60 h post-dose
[3] = Group 3, 5 mg single oral dose, fed, 72 h post-dose
[4] = Group 4, 20 mg single oral dose, fasted, 0 h (baseline)
[5] = Group 4, 20 mg single oral dose, fasted, 6 h post-dose
[6] = Group 4, 20 mg single oral dose, fasted, 12 h post-dose
[7] = Group 4, 20 mg single oral dose, fasted, 24 h post-dose
[8] = Group 4, 20 mg single oral dose, fasted, 30 h post-dose
[9] = Group 4, 20 mg single oral dose, fasted, 36 h post-dose
[10] = Group 4, 20 mg single oral dose, fasted, 48 h post-dose
[11] = Group 4, 20 mg single oral dose, fasted, 54 h post-dose
[12] = Group 4, 20 mg single oral dose, fasted, 60 h post-dose
[13] = Group 4, 20 mg single oral dose, fasted, 72 h post-dose
[14] = Group 5, 20 mg single oral dose, fed, 0 h (baseline)
[15] = Group 5, 20 mg single oral dose, fed, 6 h post-dose
[16] = Group 5, 20 mg single oral dose, fed, 12 h post-dose
[17] = Group 5, 20 mg single oral dose, fed, 24 h post-dose
[18] = Group 5, 20 mg single oral dose, fed, 30 h post-dose
[19] = Group 5, 20 mg single oral dose, fed, 36 h post-dose
[20] = Group 5, 20 mg single oral dose, fed, 48 h post-dose
[21] = Group 5, 20 mg single oral dose, fed, 54 h post-dose
[22] = Group 5, 20 mg single oral dose, fed, 60 h post-dose
[23] = Group 5, 20 mg single oral dose, fed, 72 h post-dose
[24] = Group 6, 40 mg single oral dose, fasted, 0 h (baseline)
[25] = Group 6, 40 mg single oral dose, fasted, 6 h post-dose
[26] = Group 6, 40 mg single oral dose, fasted, 12 h post-dose
[27] = Group 6, 40 mg single oral dose, fasted, 24 h post-dose
[28] = Group 6, 40 mg single oral dose, fasted, 30 h post-dose
[29] = Group 6, 40 mg single oral dose, fasted, 36 h post-dose
[30] = Group 6, 40 mg single oral dose, fasted, 48 h post-dose
[31] = Group 6, 40 mg single oral dose, fasted, 54 h post-dose
[32] = Group 6, 40 mg single oral dose, fasted, 60 h post-dose
[33] = Group 6, 40 mg single oral dose, fasted, 72 h post-dose

CC(C)(Sc1ccncc1-c1ccc(C#N)c2ccccc12)C(=O)O [2-((3-(4-cyanonaphthalen-1-yl)pyridin-4-yl)thio)-2-methylpropanoic acid]
Absolute sUA concentration, Mean (3-8) (Group 3, 5 mg single oral dose, fed, 48 h post-dose): 4.5 mg/dL | % sUA reduction (from baseline) [1]: −37.7% and −47.0% and −27.7% and −38.3% and −21.1% and −32.5% | % sUA reduction (from baseline), Mean (3-8) [1]: −34.1% | Absolute sUA concentration, Mean (3-8) [1]: 3.9 mg/dL | % sUA reduction (from baseline) [2]: −27.5% and −28.8% and −30.8% and −20.0% and −24.6% and −35.0% | % sUA reduction (from baseline), Mean (3-8) [2]: −27.8% | Absolute sUA concentration, Mean (3-8) [2]: 4.3 mg/dL | % sUA reduction (from baseline) [3]: −14.5% and −18.2% and −20.0% and −11.7% and −15.8% and −25.0% | % sUA reduction (from baseline), Mean (3-8) [3]: −17.5% | Absolute sUA concentration, Mean (3-8) [3]: 4.9 mg/dL | % sUA reduction (from baseline), Mean (3-8) [4]: 0% | Absolute sUA concentration, Mean (3-8) [4]: 6.8 mg/dL | % sUA reduction (from baseline), Mean (3-8) [5]: −37.1% | Absolute sUA concentration, Mean (3-8) [5]: 4.3 mg/dL | % sUA reduction (from baseline), Mean (3-8) [6]: −41.2% | Absolute sUA concentration, Mean (3-8) [6]: 4.0 mg/dL | % sUA reduction (from baseline), Mean (3-8) [7]: −43.1% | Absolute sUA concentration, Mean (3-8) [7]: 3.8 mg/dL | % sUA reduction (from baseline), Mean (3-8) [8]: −47.4% | Absolute sUA concentration, Mean (3-8) [8]: 3.6 mg/dL | % sUA reduction (from baseline), Mean (3-8) [9]: −48.4% | Absolute sUA concentration, Mean (3-8) [9]: 3.5 mg/dL | % sUA reduction (from baseline), Mean (3-8) [10]: −39.0% | Absolute sUA concentration, Mean (3-8) [10]: 4.1 mg/dL | % sUA reduction (from baseline), Mean (3-8) [11]: −37.6% | Absolute sUA concentration, Mean (3-8) [11]: 4.2 mg/dL | % sUA reduction (from baseline), Mean (3-8) [12]: −37.6% | Absolute sUA concentration, Mean (3-8) [12]: 4.2 mg/dL | % sUA reduction (from baseline), Mean (3-8) [13]: −21.5% | Absolute sUA concentration, Mean (3-8) [13]: 5.3 mg/dL | % sUA reduction (from baseline), Mean (3-8) [14]: 0% | Absolute sUA concentration, Mean (3-8) [14]: 7.1 mg/dL | % sUA reduction (from baseline), Mean (3-8) [15]: −44.6% | Absolute sUA concentration, Mean (3-8) [15]: 3.9 mg/dL | % sUA reduction (from baseline), Mean (3-8) [16]: −56.5% | Absolute sUA concentration, Mean (3-8) [16]: 3.1 mg/dL | % sUA reduction (from baseline), Mean (3-8) [17]: −46.1% | Absolute sUA concentration, Mean (3-8) [17]: 3.8 mg/dL | % sUA reduction (from baseline), Mean (3-8) [18]: −48% | Absolute sUA concentration, Mean (3-8) [18]: 3.7 mg/dL | % sUA reduction (from baseline), Mean (3-8) [19]: −49.9% | Absolute sUA concentration, Mean (3-8) [19]: 3.5 mg/dL | % sUA reduction (from baseline), Mean (3-8) [20]: −37.6% | Absolute sUA concentration, Mean (3-8) [20]: 4.4 mg/dL | % sUA reduction (from baseline), Mean (3-8) [21]: −38.8% | Absolute sUA concentration, Mean (3-8) [21]: 4.3 mg/dL | % sUA reduction (from baseline), Mean (3-8) [22]: −40.3% | Absolute sUA concentration, Mean (3-8) [22]: 4.2 mg/dL | % sUA reduction (from baseline), Mean (3-8) [23]: −28.6% | Absolute sUA concentration, Mean (3-8) [23]: 5.0 mg/dL | % sUA change (from baseline) [24]: 0% | % sUA change (from baseline), Mean (3-8) [24]: 0% | Absolute sUA concentration, Mean (3-8) [24]: 6.6 mg/dL | % sUA change (from baseline) [25]: −23.7% and −51.4% and −38.2% and −54.1% and −49.2% and −42.1% | % sUA change (from baseline), Mean (3-8) [25]: −43.1% | Absolute sUA concentration, Mean (3-8) [25]: 3.8 mg/dL | % sUA change (from baseline) [26]: −40.8% and −68.9% and −52.9% and −63.9% | % sUA change (from baseline), Mean (3-8) [26]: −59.3% | Absolute sUA concentration, Mean (3-8) [26]: 2.7 mg/dL | % sUA change (from baseline), Mean (3-8) [27]: −57.6% | Absolute sUA concentration, Mean (3-8) [27]: 2.8 mg/dL | % sUA change (from baseline), Mean (3-8) [28]: −60.6% | Absolute sUA concentration, Mean (3-8) [28]: 2.6 mg/dL | % sUA change (from baseline), Mean (3-8) [29]: −61.4% | Absolute sUA concentration, Mean (3-8) [29]: 2.5 mg/dL | % sUA change (from baseline) [30]: −53.9% and −50.0% and −48.5% and −37.7% and −55.9% and −45.6% | % sUA change (from baseline), Mean (3-8) [30]: −48.6% | Absolute sUA concentration, Mean (3-8) [30]: 3.4 mg/dL | % sUA change (from baseline) [31]: −56.6% and −47.3% and −50.0% and −39.3% and −54.2% and −40.4% | % sUA change (from baseline), Mean (3-8) [31]: −48.0% | Absolute sUA concentration, Mean (3-8) [31]: 3.4 mg/dL | % sUA change (from baseline) [32]: −56.6% and −50.0% and −48.5% and −39.3% and −52.5% and −36.8% | % sUA change (from baseline), Mean (3-8) [32]: −47.3% | Absolute sUA concentration, Mean (3-8) [32]: 3.4 mg/dL | % sUA change (from baseline) [33]: −40.8% and −31.1% and −33.8% and −19.7% and −30.5% and −19.3% | % sUA change (from baseline), Mean (3-8) [33]: −29.2% | Absolute sUA concentration, Mean (3-8) [33]: 4.6 mg/dL
